In US8222242B2, “Nitric oxide releasing compounds” (The Regents of the University of California, priority 2008, dated 2012):
Like-named read-outs stand apart in the source and are kept apart here.

Legend:
D. melanogaster [1] = assay: Nitrite and nitrate in extracts of injected flies; assay type: in vivo, Drosophila melanogaster; conditions: 1 μl of 1 mM NO-Cbi injected
Method: Nitrite and nitrate in extracts of NO-Cbi-injected flies were measured, and, as in the studies with CS-54 cells, a little over 50% of the injected NO as nitrite and nitrate was recovered (FIG. 3c). The nitrite/nitrate levels reached a maximum at 1 hour, and returned to that of water-injected flies at 4-5 hours (FIG. 3c). […] Nitrite and nitrate excretion likely explained the only partial recovery of NO.

D. melanogaster [2] = assay: Viability of injected D. melanogaster; conditions: 1 μl injected; 1 mM (ascorbic acid 5 mM); observed 48 h
Method: (A) Tubular secretion rates of Malpighian tubules isolated from D. melanogaster were measured, using half-strength Schneider's medium. Basal tubular secretion was measured at 0, 10, and 20 minutes; at 20 minutes (depicted by the arrow) 1 mM cobinamide (Cbi, open circles), 1 mM NO-Cbi (filled circles), 0.5 mM Deta-NONOate (diamonds), or 100 μM 8-CPT-cGMP (inverted triangles) were added. Results are the mean±S.D. of three independent experiments performed on Malpighian tubule pairs from 10 flies. […] (B). Flies were injected with 1 μl of 1 mM cobinamide (Cbi, open circles), 1 mM NO-Cbi (filled circles), 0.5 mM Deta-NONOate (diamonds), or 1 mM spermine NONOate (squares). […] The data are plotted as a Kaplan-Meier survival curve, and are the mean±SD of three experiments, with 10 flies per condition per experiment. […] (C). Flies were injected with 1 μl of water (control, open bar), 1 mM cobinamide (Cbi, grey bar), or 1 mM NO-Cbi (black bars). Flies were killed and extracts were prepared at 3 hours for the water- and cobinamide-injected flies, and at the indicated times for the NO-Cbi-injected flies. Nitrite and nitrate in the extracts were measured using an enhanced Griess reagent.
The fluid volume of a fly is […], and thus, the injected agent was diluted about 10-fold. […]

New Zealand white rabbit = assay: Oral (nasogastric) NO-Cbi and rabbit blood pressure; assay type: in vivo
Method: An anesthetized New Zealand white rabbit was given NO-Cbi via a nasogastric tube at 10 and 100 (0.32 and 3.2 mg/kg) (FIG. 10a) or 10 and 50 (0.32 and 1.6 mg/kg) (FIG. 10b) times the dose used intravenously. Blood pressure was monitored continuously by an intra-arterial catheter, and was recorded every 5 minutes. The blood pressure was allowed to stabilize for 10 minutes prior to administering NO-Cbi.

[3] = for change of spectrum: room temperature, open to air
Method: NO-Cbi was diluted 100-fold into DMEM containing 10% FBS, transferred to a cuvette, and analyzed immediately by spectrophotometry between 300 and 600 nm (curve a). Spectra were obtained every 30 minutes for 3 hours, generating the family of curves, with curve b being the 3 hour spectrum; in the inset, curve b is the spectrum at 16 hours. The cuvette was open to air and kept at room temperature. The same experiment was repeated two times with similar results.
NO-Cbi was diluted 100-fold in water, PBS, or DMEM containing 10% FBS to a final concentration of 50 uM. It was analyzed spectrophotometrically between 300 and 600 nm in a Kontron 860 spectrophotometer, and by mass spectroscopy using a LCQ classic ion-trap-type mass spectrometer (Thermo-Finnigan) at 160° C. capillary temperature and 5000V spray voltage. The mass spectrometry data were acquired in profile mode and analyzed on Xcalibur software.

rabbits [4] = assay: Continuous intravenous infusion in anesthetized rabbits: systemic hemodynamics and gas exchange; assay type: in vivo, rabbit
Method: NO-Cbi was given by intravenous infusion at a dose of 5 μg/kg/min (4.8 nmol/kg/min) to a 3.5 kg rabbit. […] The infusion was stopped at 10 minutes, but, because of drawing blood through the arterial line for blood gas analysis, the first measurement of blood pressure occurred 6 minutes later. Full recovery required 12 minutes, but it is possible that the initial rate of recovery was faster than shown in the graph. A small overshoot occurred in both systolic and diastolic blood pressure, before returning to pre-treatment levels.
Continuous intravenous NO-Cbi infusions were performed in anesthetized rabbits with systemic hemodynamic monitoring, continuous gas exchange analysis, and diffuse optical spectroscopy (DOS) and continuous wave near-infrared spectroscopy monitoring. DOS monitoring was over muscle as a representation of peripheral tissue, and continuous wave spectroscopy was over muscle and brain region. Six animals have been studied to date, varying NO-Cbi infusion rates in each animal between 1.7 and 6.9 μg/kg/min (1.6 and 6.7 nmol/kg/min).
The blood pressure of rabbits is similar to that of humans, but because of anesthesia, initial blood pressures in the rabbits were on average ˜80/60 mm Hg (FIG. 6). […] Blood pressure returned to baseline within 12 minutes of stopping the infusion, and starting and stopping the infusion repeatedly yielded similar results.

rabbits [5] = assay: Rabbits with phenylephrine-induced hypertension; assay type: in vivo, rabbit
Method: Phenylephrine was given by continuous intravenous infusion to an anesthetized rabbit at increasing rates from 5 to 20 μg/kg/min; the rabbit remained on the highest phenylephrine infusion rate until the end of the experiment (darker arrows with “A”-shaped arrowheads indicate start times of each increasing dose). At 49 minutes, an infusion of NO-Cbi was started at a rate of 3 μg/kg/min (2.9 nmol/kg/min), with the infusion rate doubled at 58 minutes (lighter arrows with triangular-shaped arrowheads indicate start times of infusions). Systolic and diastolic blood pressure recordings from an intra-arterial catheter are shown. Changes in total hemoglobin, oxyhemoglobin, and deoxyhemoglobin concentrations were measured by continuous wave near-infrared spectroscopy over the left thigh muscle. Phenylephrine caused a progressive decrease in total hemoglobin and oxyhemoglobin concentrations, which reversed within seconds of starting the NO-Cbi infusion.
Decreased tissue oxygenation as occurred in the experiments shown in FIGS. 7 and 8 would clearly be an undesirable effect of treating hypertensive patients with NO-Cbi. However, lowering blood pressure of a hypertensive patient is very different from lowering blood pressure of a normotensive subject, and the experiments described in Example 15 rabbits with normal or low (due to anesthesia) blood pressure. To simulate a hypertensive state, the blood pressure of rabbits was raised using a continuous intravenous infusion of phenylephrine, a peripheral vasoconstrictor (FIG. 9). As the rabbit's blood pressure increased above normal, tissue perfusion and oxygenation decreased, as evidenced by a decrease in total hemoglobin and oxyhemoglobin concentrations in muscle.
Thus, in an animal with drug-induced hypertension, NO-Cbi improved tissue perfusion and oxygenation as it lowered blood pressure.

[6] = continuous gas exchange monitoring

In the case of `CC1=C2[N+]3=C(C=C4[N+]5=C(C(C)=C6[N]7C(C(CC(N)=O)C6(C)CCC(=O)NCC(C)O)C6(C)[N+](=C1C(CCC(N)=O)C6(C)CC(N)=O)[Co-3]753[N]=O)C(CCC(N)=O)C4(C)C)C(CCC(N)=O)C2(C)CC(N)=O` (centres unmarked) [NO-Cbi, nitrosyl cobinamide], the “injected NO recovered as nitrite and nitrate” value (D. melanogaster [1]) is reported as “over 50%”, the “time of maximum nitrite/nitrate levels” value (D. melanogaster [1]) is reported as 1 h and the “time of return of nitrite/nitrate levels to that of water-injected flies” value (D. melanogaster [1]) is reported as 4 to 5 h. For the same molecule, the “fly killing / toxicity to flies” value (D. melanogaster [2]) was “killed the flies as effectively as 1 mM spermine NONOate”, the “blood pressure on the higher dose” value (New Zealand white rabbit; 3.2 or 1.6 mg/kg via nasogastric tube) was “steeper decrease” and the “time until blood pressure began to decrease” value (New Zealand white rabbit; low dose (0.32 mg/kg) via nasogastric tube) was no more than 10 min. For the same molecule, the “blood pressure after 100 or 180 minutes” value (New Zealand white rabbit; via nasogastric tube) was “remained lower than baseline”, the “duration of effect after each dose” value (New Zealand white rabbit; via nasogastric tube) was “at least 40 minutes” and the “time for spectrum to change to that of cobinamide” value ([3]; DMEM containing 10% FBS) was “about 3 h”. For the same molecule, the “effect on NO-Cbi's half-life” value ([3]; buffer) was “significantly reduced”, the half-life ([3]; buffer) was roughly 1.5 h and the change of spectrum ([3]; phosphate-buffered saline (PBS)) was “little spectral change”. For the same molecule, the change of spectrum ([3]; water, 16 hours) was “did not change”, the “time to new steady-state of blood pressure” value (rabbits [4]; 5 μg/kg/min intravenous infusion) was 5 min and the “time until systolic and diastolic blood pressures began to decrease” value (rabbits [4]; 5 μg/kg/min intravenous infusion, 3.5 kg rabbit) was no more than 15 s. For the same molecule, the “time required for full recovery of blood pressure” value (rabbits [4]; 5 μg/kg/min, infusion stopped at 10 minutes) was 12 min, the arterial-venous oxygen differences (rabbits [4]; [6]) was “increased arterial-venous oxygen differences” and the “end tidal CO2” value (rabbits [4]; [6]) was “decreased end tidal CO2”. The “effects on blood pressure compared with nitroprusside” value (rabbits [4]; equimolar amounts) was “more rapid and pronounced than those with equimolar amounts of nitroprusside”, the “cardiac output (direct Fick method)” value (rabbits [4]; intravenous infusion) was “decreased” and the heart rate (rabbits [4]; intravenous infusion) was “did not change significantly”. For the same molecule, the “time for blood pressure to return to baseline after stopping the infusion” value (rabbits [4]; intravenous infusion) was no more than 12 min, the blood pressure (rabbits [4]; intravenous infusion 1.7 to 6.9 μg/kg/min) was “marked infusion-rate-dependent decrease in blood pressure” and the “physiological half-life of NO-Cbi” value (rabbits [4]; suggested by return of blood pressure) was 5-6 minutes. The blood pressure (rabbits [5]; NO-Cbi infusion 3 μg/kg/min during phenylephrine, within seconds) was “began to decrease” and the “total tissue hemoglobin and oxyhemoglobin concentrations” value (rabbits [5]; NO-Cbi infusion during phenylephrine) was “increased”.
